In brackets after ≈: the same amount, converted by molar mass.
Assays:
Type in all cases: functional
Escherichia coli [1] = test: In vitro antibacterial activity against Escherichia coli 1919 PM.
Clostridium perfringens = test: In vitro antibacterial activity against Clostridium perfringens 615.
Pseudomonas aeruginosa [2] = test: In vitro antibacterial activity against Pseudomonas aeruginosa 2032 WT.
Pseudomonas aeruginosa [3] = test: In vitro antibacterial activity against Pseudomonas aeruginosa P. aeruginosa 1911.
Bacteroides fragilis = test: In vitro antibacterial activity against Bacteroides fragilis 2017.
Streptococcus pneumoniae = test: In vitro antibacterial activity against Streptococcus pneumoniae 3512.
Staphylococcus aureus = test: In vitro antibacterial activity against Staphylococcus aureus 853.
Escherichia coli [4] = test: In vitro antibacterial activity against Escherichia coli 1850 WT.

Q: How did the MIC (Escherichia coli [1]) turn out when `CCNC(=O)N(C)[C@H]1CCC[C@H]2C1=C(C(=O)[O-])N1C(=O)[C@H]([C@@H](C)O)[C@@H]21.[Na+]` was run?
A: 0.25 µg/mL

Q: And the MIC (Clostridium perfringens)?
A: < 0.12 µg/mL

Q: What about the MIC (Pseudomonas aeruginosa [2]) of the same compound?
A: 4 µg/mL

Q: What about the MIC (Pseudomonas aeruginosa [3]) of the same compound?
A: 16 µg/mL

Q: And the MIC (Bacteroides fragilis)?
A: 0.5 µg/mL

Q: And the MIC (Streptococcus pneumoniae)?
A: < 0.12 µg/mL

Q: What about the MIC (Staphylococcus aureus) of the same compound?
A: 0.25 µg/mL

Q: What about the MIC (Escherichia coli [4]) of the same compound?
A: 2 µg/mL

Q: How did the MIC (Escherichia coli [1]) turn out when `C[C@@H](O)[C@H]1C(=O)N2C(C(=O)O)=C(SCCNC=N)C[C@H]12` [IMIPENEM ANHYDROUS] was run?
A: 0.5 µg/mL (≈ 1.67 µM)

Q: What about the MIC (Clostridium perfringens) of the same compound?
A: 0.03 µg/mL (≈ 0.1 µM)

Q: And the MIC (Pseudomonas aeruginosa [2])?
A: 4 µg/mL (≈ 13.4 µM)

Q: What about the MIC (Pseudomonas aeruginosa [3]) of the same compound?
A: 4 µg/mL (≈ 13.4 µM)

Q: What about the MIC (Bacteroides fragilis) of the same compound?
A: 0.06 µg/mL (≈ 0.2 µM)

Q: What about the MIC (Streptococcus pneumoniae) of the same compound?
A: < 0.01 µg/mL

Q: What about the MIC (Staphylococcus aureus) of the same compound?
A: 0.1 µg/mL (≈ 0.334 µM)

Q: And the MIC (Escherichia coli [4])?
A: 0.5 µg/mL (≈ 1.67 µM)

Q: Which results are given for `C[C@@H](O)[C@H]1C(=O)N2C(C(=O)[O-])=C3[C@H](CCC[C@@H]3N(C)C(N)=O)[C@H]12.[Na+]`?
A: MIC (Escherichia coli [1]): < 0.12 µg/mL; MIC (Clostridium perfringens): < 0.12 µg/mL; MIC (Pseudomonas aeruginosa [2]): 1 µg/mL; MIC (Pseudomonas aeruginosa [3]): 8 µg/mL; MIC (Bacteroides fragilis): < 0.12 µg/mL; MIC (Streptococcus pneumoniae): < 0.12 µg/mL; MIC (Staphylococcus aureus): < 0.12 µg/mL; MIC (Escherichia coli [4]): 0.25 µg/mL

Q: `CO[C@H]1CCC[C@H]2C1=C(C(=O)[O-])N1C(=O)[C@H]([C@@H](C)O)[C@@H]21.[Na+]` [SANFETRINEM SODIUM] was tested. Which MIC (Escherichia coli [1]) did it give?
A: 0.5 µg/mL

Q: What about the MIC (Clostridium perfringens) of the same compound?
A: 0.03 µg/mL

Q: What about the MIC (Pseudomonas aeruginosa [2]) of the same compound?
A: 16 µg/mL

Q: What about the MIC (Pseudomonas aeruginosa [3]) of the same compound?
A: > 32 µg/mL

Q: What about the MIC (Bacteroides fragilis) of the same compound?
A: 0.06 µg/mL

Q: What about the MIC (Streptococcus pneumoniae) of the same compound?
A: < 0.01 µg/mL

Q: And the MIC (Staphylococcus aureus)?
A: 0.25 µg/mL

Q: What about the MIC (Escherichia coli [4]) of the same compound?
A: 0.5 µg/mL

Q: `C[C@@H](O)[C@H]1C(=O)N2C(C(=O)[O-])=C3[C@H](CCC[C@@H]3N(C)C(=O)NCCO)[C@H]12.[Na+]` was tested. Which MIC (Escherichia coli [1]) did it give?
A: < 0.12 µg/mL

Q: What about the MIC (Clostridium perfringens) of the same compound?
A: < 0.12 µg/mL

Q: And the MIC (Pseudomonas aeruginosa [2])?
A: 8 µg/mL

Q: And the MIC (Pseudomonas aeruginosa [3])?
A: 16 µg/mL

Q: And the MIC (Bacteroides fragilis)?
A: 0.25 µg/mL

Q: What about the MIC (Streptococcus pneumoniae) of the same compound?
A: < 0.12 µg/mL

Q: What about the MIC (Staphylococcus aureus) of the same compound?
A: 0.25 µg/mL

Q: And the MIC (Escherichia coli [4])?
A: 0.5 µg/mL

Q: For `C[C@@H](O)[C@H]1C(=O)N2C(C(=O)[O-])=C3[C@H](CCC[C@@H]3N(C)C(=O)NC(C)(C)C)[C@H]12.[Na+]`, which MIC (Escherichia coli [1]) is on record?
A: 0.5 µg/mL

Q: And the MIC (Clostridium perfringens)?
A: < 0.12 µg/mL

Q: What about the MIC (Pseudomonas aeruginosa [2]) of the same compound?
A: 2 µg/mL

Q: And the MIC (Pseudomonas aeruginosa [3])?
A: 16 µg/mL

Q: And the MIC (Bacteroides fragilis)?
A: 0.5 µg/mL

Q: What about the MIC (Streptococcus pneumoniae) of the same compound?
A: < 0.12 µg/mL

Q: And the MIC (Staphylococcus aureus)?
A: 0.5 µg/mL

Q: What about the MIC (Escherichia coli [4]) of the same compound?
A: 4 µg/mL

Source: ChEMBL document CHEMBL1128935, “Synthesis and antibacterial, activity of 4-ureido trinems” (1996)
